# How the values were obtained:
# [1] = target: D(2) dopamine receptor (Rattus norvegicus) (UniProt P61169); experiment: Affinity on C6 glioma cells transfected with Dopamine receptor D2L; format: cell-based
# [2] = target: D(2) dopamine receptor (Rattus norvegicus) (UniProt P61169); experiment: Inhibition of [3H]spiperone binding to rat striatal membrane Dopamine receptor D2
# [3] = target: D(3) dopamine receptor (Rattus norvegicus) (UniProt P19020); conditions: C6
# Description: Affinity on C6 glioma cells transfected with Dopamine receptor D3
# [4] = target: D(1A) dopamine receptor (Rattus norvegicus) (UniProt P18901); experiment: Inhibition of [3H]SCH-23390 binding to rat striatal membrane Dopamine receptor D1
# Chain of D(1A) dopamine receptor (Rattus norvegicus) (P18901 whole entry): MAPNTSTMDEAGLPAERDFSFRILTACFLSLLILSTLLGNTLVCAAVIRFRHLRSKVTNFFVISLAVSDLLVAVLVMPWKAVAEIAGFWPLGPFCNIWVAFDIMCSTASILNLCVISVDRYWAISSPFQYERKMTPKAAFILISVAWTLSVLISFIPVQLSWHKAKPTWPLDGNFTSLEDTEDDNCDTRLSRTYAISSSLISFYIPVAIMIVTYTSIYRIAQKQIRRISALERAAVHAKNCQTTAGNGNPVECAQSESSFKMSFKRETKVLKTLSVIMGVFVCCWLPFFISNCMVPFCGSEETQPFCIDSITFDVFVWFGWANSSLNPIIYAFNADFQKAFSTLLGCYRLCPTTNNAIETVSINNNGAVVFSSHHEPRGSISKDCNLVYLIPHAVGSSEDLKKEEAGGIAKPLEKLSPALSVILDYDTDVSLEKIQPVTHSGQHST
# Chain of D(2) dopamine receptor (Rattus norvegicus) (P61169 whole entry): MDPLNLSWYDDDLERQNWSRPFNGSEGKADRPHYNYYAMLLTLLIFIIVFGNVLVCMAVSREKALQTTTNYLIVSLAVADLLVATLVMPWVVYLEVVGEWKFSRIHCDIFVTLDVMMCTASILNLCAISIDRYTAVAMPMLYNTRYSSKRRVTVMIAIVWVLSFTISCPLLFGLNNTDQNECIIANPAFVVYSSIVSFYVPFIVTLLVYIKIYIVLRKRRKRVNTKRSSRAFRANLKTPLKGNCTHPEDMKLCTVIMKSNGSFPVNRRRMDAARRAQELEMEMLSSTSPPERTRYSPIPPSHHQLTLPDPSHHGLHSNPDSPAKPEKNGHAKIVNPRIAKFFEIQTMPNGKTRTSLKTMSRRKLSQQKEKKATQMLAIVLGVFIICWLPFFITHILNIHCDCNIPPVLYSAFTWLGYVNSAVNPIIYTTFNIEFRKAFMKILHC
# Chain of D(3) dopamine receptor (Rattus norvegicus) (P19020 whole entry): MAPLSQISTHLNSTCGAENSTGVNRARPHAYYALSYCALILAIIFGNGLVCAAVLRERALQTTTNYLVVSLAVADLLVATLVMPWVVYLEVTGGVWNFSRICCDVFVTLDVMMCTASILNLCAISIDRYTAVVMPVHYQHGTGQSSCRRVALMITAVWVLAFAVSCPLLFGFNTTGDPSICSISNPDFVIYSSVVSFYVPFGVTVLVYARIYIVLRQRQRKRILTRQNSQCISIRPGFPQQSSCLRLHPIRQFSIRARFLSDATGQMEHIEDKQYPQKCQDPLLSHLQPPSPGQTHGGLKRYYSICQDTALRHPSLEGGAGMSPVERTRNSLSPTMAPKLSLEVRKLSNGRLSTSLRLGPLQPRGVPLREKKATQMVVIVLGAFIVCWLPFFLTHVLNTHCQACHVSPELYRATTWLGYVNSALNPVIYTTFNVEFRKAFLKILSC
SMILES,K 0.5 [1] [nM],K 0.5 [2] [nM],K 0.5 [3] [nM],K 0.5 [4] [µM]
O=C(CCCN1CCC2(CC1)C(=O)NCN2c1ccccc1)c1ccc(F)cc1,0.16,0.21,,
CN1Cc2ccccc2[C@@H]2Cc3n[nH]cc3C[C@H]21,3090,189,187,> 5
CCCN1CCC[C@@H]2Cc3nc(N)ncc3C[C@H]21,710,4.78,,> 5
CCCN1Cc2ccccc2[C@@H]2Cc3n[nH]cc3C[C@H]21,4300,209,162,> 5
CN1CCc2cc(Cl)c(O)cc2[C@@H](c2ccccc2)C1,,,,0.0004
CCCN1Cc2ccccc2[C@@H]2Cc3nc(N)ncc3C[C@H]21,> 5000,45,20.2,> 5
Oc1ccc2c(c1O)Cc1cccc3c1[C@H]2CNC3,174,,,
C=CCN1Cc2ccccc2[C@@H]2Cc3nc(N)ncc3C[C@H]21,> 5000,102,15.8,> 5
Nc1ncc2c(n1)C[C@H]1c3ccccc3CN[C@@H]1C2,,467,324,> 5
c1ccc2c(c1)CN[C@@H]1Cc3c[nH]nc3C[C@@H]21,> 5000,641,955,> 5
C=CCN1Cc2ccccc2[C@@H]2Cc3n[nH]cc3C[C@H]21,1880,100,73.7,> 5
Oc1cc2c(cc1O)[C@H]1c3ccccc3CN[C@@H]1CC2,1490,,170,

# Reference: ChEMBL document CHEMBL1132603
